Test results: patent US11993599B2, “Therapeutic compounds” (Genentech, Inc., priority 2021, dated 2024)

Legend:
Assay type in all cases: cell-based
[1] = target: T1, BRM (Homo sapiens, UniProt P51531); experiment: Immunofluorescence assay for BRM degradation in SW1573 cells; set-up: treated overnight at 4° C. with either BRM primary antibody (Cell signaling Cat #11966) or BRG primary antibody; endogenous in cells; host or cells: SW1573; conditions: 20 hours incubation; for DC50: immunofluorescence mean nuclear signal, read-out: BRM IF Degradation IC50; for BRM IF Degradation Sinf (%): normalized to a known degrader control
Outline: (§1)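 Read-out: mean per-cell nuclear BRM or BRG1 immunofluorescence by automated imaging. SW1573, 20 h compound, 4% formaldehyde fix, Triton permeabilization, overnight 4 °C primary antibody, fluorescent secondary plus Hoechst. Normalized to reference degrader; floating-max curve fit gives Dmax.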

[2] = target: T1, BRM; experiment: HiBIT nanoluciferase complementation screen for BRM degraders; conditions: 18 hours, BRM-HiBIT KI Hela cells, luminescence normalized: DMSO only = 0%, no cells = −100%; for Median HiBiT activity 1 μM: compound 1 μM; for Median HiBiT activity 10 μM: compound 10 μM
Description: Example B-1: HiBIT Nanoluciferase Complementation Screen for BRM Degraders
To assess BRM degradation, compounds were screened for their effect of BRM levels using the HiBIT nanoluciferase complementation strategy developed at Promega. In brief, a HELA cell line that was genetically modified via CRISPR/CAS9 was used to fuse the HiBIT sequence at the 3′ end of BRM (BRM-HiBIT KI Hela). BRM protein levels were then detected using the Nano-Glo HiBIT lytic detection reagent (Promega).
The screened compounds were plated into a white 384-well plate at 10 μM and 1 μM in 25 nL DMSO using an Echo dispenser (Labcyte). BRM-HiBIT KI Hela cells were seeded in the compound plate at 5000 cell per well at 25 μl in DMEM growth media (containing 10% FBS, 1% Glutamax (GIBCO cat #31053-028), lx Penicillin-Streptomycin (ROCHE, cat #1107444001), 4.5 g/L D-Glucose, and no phenol red). After incubation with compounds for 18 hours at 37° C., cell viability was assessed by the addition of 5 μl Cell Titer-Fluor reagent (Promega). After 30 s of mixing on an orbital shaker, and 30 minutes incubation at 37° C., fluorescence was measured with an INFINITE F500 (Tecan) (380-400 nm excitation, 505 nm emission). Next, to assess BRM HiBIT levels, 30 μl of Nano-Glo HiBIT lytic detection reagent (Promega) containing 1:50 Nano-Glo HiBIT lytic substrate and 1:100 LgBIT protein per ml of lytic buffer was added. After shaking on an orbital shaker at 350 rpm for 10 minutes, luminescence was measured on the INFINITE F500 (Tecan). To assess compound effects, luminescence signal was normalized with the mean of wells treated with DMSO only set to 0% and the mean of wells containing no cells set to −100%. Note that, in Table 4, the “Compound Number” corresponds to that used in Table 1.

[3] = target: T2, BRG1 (Homo sapiens, UniProt P51532); experiment: Immunofluorescence assay for BRG1 degradation in SW1573 cells; conditions: 20 hours incubation; for DC50: immunofluorescence mean nuclear signal, read-out: BRG1 IF Degradation IC50; for Dmax: SW1573, 20 h, normalized to a known degrader control, read-out: BRG1 IF Degradation Sinf (%)
T2 construct: either BRM primary antibody (Cell signaling Cat #11966) or BRG primary antibody (Abcam, ab 110641); endogenous in cells; host or cells: SW1573
Outline: as §1

T2 sequence (P51532 whole entry): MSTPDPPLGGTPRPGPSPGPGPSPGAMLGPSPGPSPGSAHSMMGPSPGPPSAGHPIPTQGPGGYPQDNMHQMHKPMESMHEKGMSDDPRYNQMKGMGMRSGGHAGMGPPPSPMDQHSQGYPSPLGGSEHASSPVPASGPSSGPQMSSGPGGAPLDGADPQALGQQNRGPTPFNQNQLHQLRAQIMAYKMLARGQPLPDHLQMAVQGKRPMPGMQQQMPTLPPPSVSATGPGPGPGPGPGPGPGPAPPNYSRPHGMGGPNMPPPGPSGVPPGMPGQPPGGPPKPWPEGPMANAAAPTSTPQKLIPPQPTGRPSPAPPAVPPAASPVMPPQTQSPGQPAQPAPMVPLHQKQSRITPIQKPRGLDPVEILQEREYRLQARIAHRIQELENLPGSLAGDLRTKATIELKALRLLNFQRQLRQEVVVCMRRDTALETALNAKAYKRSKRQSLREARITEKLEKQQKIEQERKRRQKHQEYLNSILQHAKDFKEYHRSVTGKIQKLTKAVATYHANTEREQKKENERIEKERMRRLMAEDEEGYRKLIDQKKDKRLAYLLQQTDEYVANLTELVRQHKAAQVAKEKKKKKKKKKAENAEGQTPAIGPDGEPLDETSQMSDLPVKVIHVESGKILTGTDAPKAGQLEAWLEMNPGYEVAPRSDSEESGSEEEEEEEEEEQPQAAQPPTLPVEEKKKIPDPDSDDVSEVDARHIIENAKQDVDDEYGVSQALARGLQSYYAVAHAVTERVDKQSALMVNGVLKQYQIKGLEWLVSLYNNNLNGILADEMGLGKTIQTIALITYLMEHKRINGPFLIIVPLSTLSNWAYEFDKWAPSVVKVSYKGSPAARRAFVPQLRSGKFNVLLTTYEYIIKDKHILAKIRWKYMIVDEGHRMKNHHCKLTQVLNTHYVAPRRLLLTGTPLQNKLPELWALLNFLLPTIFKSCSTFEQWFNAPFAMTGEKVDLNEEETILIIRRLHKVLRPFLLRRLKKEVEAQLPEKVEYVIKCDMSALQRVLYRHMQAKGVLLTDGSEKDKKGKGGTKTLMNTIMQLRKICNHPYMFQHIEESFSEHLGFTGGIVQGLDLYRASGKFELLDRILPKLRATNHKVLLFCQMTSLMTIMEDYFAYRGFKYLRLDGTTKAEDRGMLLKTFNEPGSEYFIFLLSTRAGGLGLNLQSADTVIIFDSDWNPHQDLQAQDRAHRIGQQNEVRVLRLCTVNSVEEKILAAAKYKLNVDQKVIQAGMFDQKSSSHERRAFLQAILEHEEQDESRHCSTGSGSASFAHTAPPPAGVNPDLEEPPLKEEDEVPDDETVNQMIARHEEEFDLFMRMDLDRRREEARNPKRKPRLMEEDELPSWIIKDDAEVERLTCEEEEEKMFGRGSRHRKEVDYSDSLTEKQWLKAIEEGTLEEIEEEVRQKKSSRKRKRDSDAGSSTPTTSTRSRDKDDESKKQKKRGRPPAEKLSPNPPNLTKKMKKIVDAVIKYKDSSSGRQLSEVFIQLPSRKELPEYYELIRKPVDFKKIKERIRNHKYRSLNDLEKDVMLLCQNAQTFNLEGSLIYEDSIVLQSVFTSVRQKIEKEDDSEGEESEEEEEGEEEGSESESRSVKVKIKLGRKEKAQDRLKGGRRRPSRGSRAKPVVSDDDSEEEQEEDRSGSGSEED
T1 sequence (P51531 whole entry): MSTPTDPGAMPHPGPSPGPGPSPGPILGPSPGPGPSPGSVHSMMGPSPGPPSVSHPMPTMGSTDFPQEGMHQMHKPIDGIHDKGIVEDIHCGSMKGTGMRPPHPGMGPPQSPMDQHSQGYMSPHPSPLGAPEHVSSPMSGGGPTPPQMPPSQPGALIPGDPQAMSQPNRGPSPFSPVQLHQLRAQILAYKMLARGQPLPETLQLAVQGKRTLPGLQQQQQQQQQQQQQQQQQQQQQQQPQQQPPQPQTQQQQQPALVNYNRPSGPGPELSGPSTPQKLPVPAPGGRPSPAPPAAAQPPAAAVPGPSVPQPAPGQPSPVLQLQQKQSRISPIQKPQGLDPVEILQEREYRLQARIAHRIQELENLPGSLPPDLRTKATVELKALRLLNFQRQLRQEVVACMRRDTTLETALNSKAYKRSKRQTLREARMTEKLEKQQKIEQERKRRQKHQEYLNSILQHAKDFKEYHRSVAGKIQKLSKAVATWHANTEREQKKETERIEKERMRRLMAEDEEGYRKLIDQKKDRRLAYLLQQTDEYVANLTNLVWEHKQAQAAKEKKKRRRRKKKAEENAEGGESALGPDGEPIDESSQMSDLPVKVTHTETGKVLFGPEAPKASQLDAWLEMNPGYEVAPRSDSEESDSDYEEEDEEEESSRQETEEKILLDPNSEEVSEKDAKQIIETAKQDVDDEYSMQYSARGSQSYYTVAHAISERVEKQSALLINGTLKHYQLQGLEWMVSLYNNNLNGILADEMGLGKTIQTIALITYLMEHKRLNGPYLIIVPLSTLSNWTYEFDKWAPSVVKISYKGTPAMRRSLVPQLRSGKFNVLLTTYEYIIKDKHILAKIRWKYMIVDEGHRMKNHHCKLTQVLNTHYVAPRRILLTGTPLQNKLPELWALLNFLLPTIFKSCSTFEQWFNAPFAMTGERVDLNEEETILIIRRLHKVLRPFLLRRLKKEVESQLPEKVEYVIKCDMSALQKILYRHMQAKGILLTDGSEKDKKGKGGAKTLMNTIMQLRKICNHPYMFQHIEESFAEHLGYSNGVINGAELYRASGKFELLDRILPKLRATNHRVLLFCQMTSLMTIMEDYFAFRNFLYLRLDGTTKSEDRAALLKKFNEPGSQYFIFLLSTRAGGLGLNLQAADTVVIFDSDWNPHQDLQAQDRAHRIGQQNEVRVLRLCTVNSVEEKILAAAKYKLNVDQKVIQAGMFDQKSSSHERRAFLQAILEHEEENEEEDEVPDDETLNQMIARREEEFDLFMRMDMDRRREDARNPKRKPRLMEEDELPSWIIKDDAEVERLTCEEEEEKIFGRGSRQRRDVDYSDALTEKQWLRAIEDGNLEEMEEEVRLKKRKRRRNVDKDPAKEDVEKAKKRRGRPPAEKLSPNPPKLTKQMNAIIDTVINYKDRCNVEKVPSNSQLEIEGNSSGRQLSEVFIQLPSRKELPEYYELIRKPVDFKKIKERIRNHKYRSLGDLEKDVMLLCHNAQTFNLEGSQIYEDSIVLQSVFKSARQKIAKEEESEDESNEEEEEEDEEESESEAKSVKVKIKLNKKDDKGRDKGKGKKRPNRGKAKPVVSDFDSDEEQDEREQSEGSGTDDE

Compound	DC50 [1] [µM]	BRM IF Degradation Sinf (%) [1]	Median HiBiT activity 1 μM [2] [%]	Median HiBiT activity 10 μM [2] [%]	DC50 [3] [µM]	Dmax [3] [%]
NCCCCCCc1cc(N2C3CCC2CN(c2cc(-c4ccccc4O)nnc2N)C3)ccn1 [Compound 20, 2-(6-amino-5-(8-(2-(6-aminohexyl)pyridin-4-yl)-3,8-diazabicyclo[3.2.1]octan-3-yl)pyridazin-3-yl)phenol]	0.01 to 0.1	F (F indicates −71%-−120%)	−33.3403	−8.91	0.01 to 0.1	71 to 120
Cn1cc(C#Cc2cc(N3C4CCC3CN(c3cc(-c5ccccc5O)nnc3N)C4)ccn2)cn1 [Compound 21, 2-(6-amino-5-(8-(2-((1-methyl-1H-pyrazol-4-yl)ethynyl)pyridin-4-yl)-3,8-diazabicyclo[3.2.1]octan-3-yl)pyridazin-3-yl)phenol]	> 0.1	–	−32.7297	−42.1813	0.01 to 0.1	0 to 30
Nc1nnc(-c2ccccc2O)cc1N1CC2CCC(C1)N2c1ccnc(C#CC2CCOCC2)c1 [Compound 22, 2-(6-amino-5-(8-(2-((tetrahydro-2H-pyran-4-yl)ethynyl)pyridin-4-yl)-3,8-diazabicyclo[3.2.1]octan-3-yl)pyridazin-3-yl)phenol]	> 0.1	–	−30.6701	−33.6373	> 0.1	0 to 30
C[C@@H](N)C#Cc1cc(N2C3CCC2CN(c2cc(-c4ccccc4O)nnc2N)C3)ccn1 [Compound 23, 2-(6-amino-5-(8-(2-((R)-3-aminobut-1-yn-1-yl)pyridin-4-yl)-3,8-diazabicyclo[3.2.1]octan-3-yl)pyridazin-3-yl)phenol]	< 0.01	E (E indicates −30%-−70%)	−29.3818	−58.9213	0.01 to 0.1	30 to 70
NCC#Cc1cc(N2C3CCC2CN(c2cc(-c4ccccc4O)nnc2N)C3)ccn1 [Compound 24, 2-(6-amino-5-(8-(2-(3-aminoprop-1-yn-1-yl)pyridin-4-yl)-3,8-diazabicyclo[3.2.1]octan-3-yl)pyridazin-3-yl)phenol]	0.01 to 0.1	E (E indicates −30%-−70%)	−27.1137	−43.5174	> 0.1	–
Nc1nnc(-c2ccccc2O)cc1N1CC2CCC(C1)N2c1ccnc(C#CC2CCNC2)c1 (stereo not drawn) [Compound 25, 2-(6-amino-5-(8-(2-(pyrrolidin-3-ylethynyl)pyridin-4-yl)-3,8-diazabicyclo[3.2.1]octan-3-yl)pyridazin-3-yl)phenol]	> 0.1	E (E indicates −30%-−70%)	−26.7344	−55.1975	> 0.1	–
Nc1nnc(-c2ccccc2O)cc1N1CC2CCC(C1)N2c1ccnc(C#CCCO)c1 [Compound 26, 2-(6-amino-5-(8-(2-(4-hydroxybut-1-yn-1-yl)pyridin-4-yl)-3,8-diazabicyclo[3.2.1]octan-3-yl)pyridazin-3-yl)phenol]	> 0.1	–	−25.9348	−28.4202	> 0.1	–
Nc1nnc(-c2ccccc2O)cc1N1CC2CCC(C1)N2c1ccnc(C#CCCCCO)c1 [Compound 27, 2-(6-amino-5-(8-(2-(6-hydroxyhex-1-yn-1-yl)pyridin-4-yl)-3,8-diazabicyclo[3.2.1]octan-3-yl)pyridazin-3-yl)phenol]	> 0.1	D (D indicates 0-−30%)	−23.7734	−28.4819	> 0.1	–
Nc1nnc(-c2ccccc2O)cc1N1CC2CCC(C1)N2c1ccnc(C#CCN2CCNCC2)c1 [Compound 28, 2-(6-amino-5-(8-(2-(3-(piperazin-1-yl)prop-1-yn-1-yl)pyridin-4-yl)-3,8-diazabicyclo[3.2.1]octan-3-yl)pyridazin-3-yl)phenol]	> 0.1	E (E indicates −30%-−70%)	−23.3156	−44.9026	> 0.1	–
Nc1nnc(-c2ccccc2O)cc1N1CC2CCC(C1)N2c1ccnc(C#C[C@H]2CC[C@H](N)CC2)c1 [Compound 29, 2-(6-amino-5-(8-(2-(((1r,4r)-4-aminocyclohexyl)ethynyl)pyridin-4-yl)-3,8-diazabicyclo[3.2.1]octan-3-yl)pyridazin-3-yl)phenol]	> 0.1	–	−22.4859	−33.4085	> 0.1	–
NCCC#Cc1cc(N2C3CCC2CN(c2cc(-c4ccccc4O)nnc2N)C3)ccn1 [Compound 30, 2-(6-amino-5-(8-(2-(4-aminobut-1-yn-1-yl)pyridin-4-yl)-3,8-diazabicyclo[3.2.1]octan-3-yl)pyridazin-3-yl)phenol]	> 0.1	E (E indicates −30%-−70%)	−18.8155	−47.5549	> 0.1	0 to 30
Nc1nnc(-c2ccccc2O)cc1N1CC2CCC(C1)N2c1ccnc(C#CCN2CCCC(N)C2)c1 (stereo not drawn) [Compound 31, 2-(6-amino-5-(8-(2-(3-(3-aminopiperidin-1-yl)prop-1-yn-1-yl)pyridin-4-yl)-3,8-diazabicyclo[3.2.1]octan-3-yl)pyridazin-3-yl)phenol]	> 0.1	–	−16.7799	−47.9900	> 0.1	–
NCC(=O)NCCCc1cc(N2C3CCC2CN(c2cc(-c4ccccc4O)nnc2N)C3)ccn1 [Compound 32, 2-amino-N-(3-(4-(3-(3-amino-6-(2-hydroxyphenyl)pyridazin-4-yl)-3,8-diazabicyclo[3.2.1]octan-8-yl)pyridin-2-yl)propyl)acetamide]	0.01 to 0.1	E (E indicates −30%-−70%)	−16.4623	−30.3732	0.01 to 0.1	0 to 30
NCCCc1cc(N2C3CCC2CN(c2cc(-c4ccccc4O)nnc2N)C3)ccn1 [Compound 33, 2-(6-amino-5-(8-(2-(3-aminopropyl)pyridin-4-yl)-3,8-diazabicyclo[3.2.1]octan-3-yl)pyridazin-3-yl)phenol]	> 0.1	E (E indicates −30%-−70%)	−14.8996	−55.0132	> 0.1	30 to 70
